According to patent US7723320B2, “Use of estrogen compounds to increase libido in women” (Pantarhei Bioscience B.V., priority 2001, dated 2010):
Like-named read-outs stand apart in the source and are kept apart here.

How the values were obtained:
human ERβ = target: T1, human ERβ (Homo sapiens, UniProt Q92731); assay: Competitive steroid binding assay, ERβ; conditions: read-out: Percent inhibition of specific binding in ERβ steroid binding assay; for inhibition at 0.03 µM: E4 0.03 μM; for inhibition at 0.1 µM: E4 0.1 μM; for inhibition at 0.3 µM: E4 0.3 μM; for inhibition at 1 µM: E4 1 μM
T1 construct: made in house; host or cells: Sf9 insect cells

[1] = tritium labeled, intravenous, two adult women; cited from earlier work
uterus = conditions: continuous administration from a subcutaneous depot; cited from earlier work

T1 sequence (Q92731 whole entry): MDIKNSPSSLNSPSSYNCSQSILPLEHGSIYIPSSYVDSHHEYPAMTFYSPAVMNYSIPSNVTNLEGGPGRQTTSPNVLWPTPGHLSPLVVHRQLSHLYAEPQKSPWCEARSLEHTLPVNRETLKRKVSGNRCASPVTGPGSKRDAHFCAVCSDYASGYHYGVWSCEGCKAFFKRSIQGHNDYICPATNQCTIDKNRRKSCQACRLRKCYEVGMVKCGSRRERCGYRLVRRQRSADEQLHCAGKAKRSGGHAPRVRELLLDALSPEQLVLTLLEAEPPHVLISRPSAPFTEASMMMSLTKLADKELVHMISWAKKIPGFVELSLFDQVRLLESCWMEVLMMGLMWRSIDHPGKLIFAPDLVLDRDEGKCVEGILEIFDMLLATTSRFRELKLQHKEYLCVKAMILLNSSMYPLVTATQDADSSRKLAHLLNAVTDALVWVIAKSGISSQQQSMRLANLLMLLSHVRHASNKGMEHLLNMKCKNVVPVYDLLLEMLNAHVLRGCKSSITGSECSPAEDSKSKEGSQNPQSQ

C[C@]12CC[C@@H]3c4ccc(O)cc4CC[C@H]3[C@@H]1[C@@H](O)[C@@H](O)[C@@H]2O [E4, 1,3,5(10)-estratrien-3,15α,16α,17β-tetrol]
inhibition at 0.03 µM (human ERβ; Test 1): 19%
inhibition at 0.03 µM (human ERβ; Test 2): 25%
inhibition at 0.03 µM (human ERβ; Test 3): 30%
inhibition at 0.1 µM (human ERβ; Test 1): 56%
inhibition at 0.1 µM (human ERβ; Test 2): 54%
inhibition at 0.1 µM (human ERβ; Test 3): 50%
inhibition at 0.3 µM (human ERβ; Test 1): 74%
inhibition at 0.3 µM (human ERβ; Test 2): 74%
inhibition at 0.3 µM (human ERβ; Test 3): 77%
inhibition at 1 µM (human ERβ; Test 1): 87%
inhibition at 1 µM (human ERβ; Test 2): 90%
inhibition at 1 µM (human ERβ; Test 3): 95%
excretion [1]: rapidly and completely excreted in urine as the glucosiduronate
metabolism [1]: virtually no metabolism except for conjugation
uterotrophic activity (uterus): very weak uterotrophic activity
